Results taken from ChEMBL document CHEMBL1126373, “HIV and reverse transcriptase inhibition by tannins” (Bioorg Med Chem Lett, 1992).
pEC50, pIC50: −log10 of the molar value. Active and inactive are the calls of the source. No cut-off for these calls is given here.

Key:
[1] = test system: Human immunodeficiency virus 1; experiment: Compound was tested for anti-HIV activity in cell culture assay; active anti HIV agent; format: functional, organism-based
[2] = test system: Human immunodeficiency virus 1; experiment: Inhibition against HIV replication in cell culture at 20 ug/mL; format: functional; details: for inhibition at 20 µg/mL: Human immunodeficiency virus 1
[3] = (§1) Therapeutic index was determined; details: Human immunodeficiency virus 1
[4] = test system: Human immunodeficiency virus 1; experiment: Anti-HIV activity in cell culture assay expressed as EC50 values.; format: functional, organism-based
[5] = test system: Human immunodeficiency virus 1; experiment: Anti-HIV activity in cell culture assay expressed as IC50 values.; format: functional, organism-based
[6] = test system: Human immunodeficiency virus 1; experiment: Compound was tested for anti-HIV activity in cell culture assay expressed as IC50 values; format: functional, organism-based
[7] = target: Human immunodeficiency virus type 1 reverse transcriptase (Human immunodeficiency virus 1) (UniProt Q72547); experiment: Inhibition against HIV- reverse transcriptase in cell culture at 20 ug/mL
[8] = test system: Human immunodeficiency virus 1; experiment: as §1; details: read-out: Therapeutic index

For `O=C1OC[C@H]2O[C@@H](O)[C@H](O)[C@@H](O)[C@@H]2OC(=O)c2cc(O)c(O)c(O)c2-c2c(O)c(O)c3oc(=O)c4c(c(O)c(O)c5oc(=O)c2c3c54)-c2c1cc(O)c(O)c2O`, the Activity [1] was “active anti HIV agent”.

In the case of `O=C(Oc1c(O)cc(C(=O)O[C@H]2[C@H](OC(=O)c3cc(O)c(O)c(O)c3)C[C@](O)(C(=O)O)C[C@H]2OC(=O)c2cc(O)c(O)c(O)c2)cc1O)c1cc(O)c(O)c(O)c1`, the Activity [1] was “active anti HIV agent”.

With `O=C1OC(C2OC(=O)c3cc(O)c(O)c(O)c3-c3c(O)c(O)c4oc(=O)c5c(c(O)c(O)c6oc(=O)c3c4c65)-c3c(cc(O)c(O)c3O)C(=O)OCC2O)C2OC(=O)c3c(c(O)c(O)c(O)c3[C@H]2O)-c2c1cc(O)c(O)c2O` (stereo not given in full) the Activity [1] was “active anti HIV agent”.

Compound `O=C(OC[C@H]1O[C@@H](OC(=O)c2cc(O)c(O)c(O)c2)[C@H](OC(=O)c2cc(O)c(O)c(O)c2)[C@@H](OC(=O)c2cc(O)c(O)c(O)c2)[C@@H]1OC(=O)c1cc(O)c(O)c(O)c1)c1cc(O)c(O)c(O)c1` (stereo in doubt; 10) [PENTAGALLOYL GLUCOSE] has an Inhibition [2] of 60%, a Therapeutic index [3] of 1.3 and a pEC50 [4] of 4.82. For the same compound, the pIC50 [5] was 4.72.

Compound `O=C(OC[C@H]1O[C@@H](OC(=O)c2cc(O)c(O)c(O)c2)[C@H](O)[C@@H](O)[C@@H]1O)c1cc(O)c(O)c(O)c1` has a pIC50 [6] of 4.42, an inhibition [7] of 14% and an inhibition at 20 µg/mL [2] of 40%. For the same compound, the selectivity ratio [8] was 0.8 and the pEC50 ([4]; Human immunodeficiency virus 1) was 4.30.

`O=C(O[C@@H]1O[C@H](CO)[C@@H](O)[C@H](O)[C@H]1O)c1cc(O)c(O)c(O)c1` gave a pIC50 [6] of 4.10, an inhibition [7] of 18% and an inhibition at 20 µg/mL [2] of 0%. The selectivity ratio [8] was 0.8 and the pEC50 ([4]; Human immunodeficiency virus 1) was 4.00.

For `O=C(Oc1c(O)cc(C(=O)O[C@@H]2C[C@](O)(C(=O)O)C[C@@H](OC(=O)c3cc(O)c(O)c(O)c3)[C@H]2OC(=O)c2cc(O)c(O)c(O)c2)cc1O)c1cc(O)c(O)c(O)c1`, the Activity [1] was “active anti HIV agent”.

With `O=C(Oc1c(O)cc(C(=O)O[C@@H]2C[C@@](O)(C(=O)O)C[C@@H](OC(=O)c3cc(O)c(O)c(O)c3)[C@@H]2OC(=O)c2cc(O)c(O)c(O)c2)cc1O)c1cc(O)c(O)c(O)c1` the Activity [1] was “active anti HIV agent”.

In the case of `O=C(O[C@@H]1C[C@](OC(=O)c2cc(O)c(O)c(O)c2)(C(=O)O)C[C@@H](OC(=O)c2cc(O)c(O)c(O)c2)[C@H]1OC(=O)c1cc(O)c(O)c(O)c1)c1cc(O)c(O)c(O)c1`, the Activity [1] was “Active”.

`O=C(OC[C@H]1OC(O)[C@@](O)(COC(=O)c2cc(O)c(O)c(O)c2)[C@@H]1O)c1cc(O)c(O)c(O)c1` (stereo not given in full) [HAMAMELITANNIN] showed an inhibition [7] of 16%, an inhibition at 20 µg/mL [2] of 40% and a selectivity ratio [8] of 0.9. It also gave a pEC50 ([4]; Human immunodeficiency virus 1) of 4.30 and a pIC50 ([5]; Human immunodeficiency virus 1) of 4.35.

`O=C1OCC2OC(=O)c3cc(O)c(O)c(O)c3-c3c(O)c(O)c(O)c4c3C(=O)OC(C2OC(=O)c2cc(O)c(O)c(O)c2-c2c1cc(O)c(O)c2O)C1OC(=O)c2c-4c(O)c(O)c(O)c2[C@@H]1c1c(O)cc(O)c2c1O[C@H](c1ccc(O)c(O)c1)[C@@H](O)C2` (stereo not given in full) gave an inhibition [7] of 24%, an inhibition at 20 µg/mL [2] of 88% and a selectivity ratio [8] of 3.8. For the same compound, the pEC50 ([4]; Human immunodeficiency virus 1) was 5.40 and the pIC50 ([5]; Human immunodeficiency virus 1) was 4.82.

In the case of `O=C(O[C@H]1[C@H](O)C[C@](O)(C(=O)O)C[C@H]1O)c1cc(O)c(O)c(O)c1`, the inhibition [7] was 0%, the inhibition at 20 µg/mL [2] was 0% and the selectivity ratio [8] was < 0.8. For the same compound, the pEC50 ([4]; Human immunodeficiency virus 1) was < 4.00 and the pIC50 ([5]; Human immunodeficiency virus 1) was 4.10.

With `O=C(O[C@@H]1[C@@H](c2c(O)cc(O)c3c2O[C@H](c2ccc(O)c(O)c2)[C@H](OC(=O)c2cc(O)c(O)c(O)c2)C3)c2c(O)cc(O)c([C@H]3c4c(O)cc(O)cc4O[C@H](c4ccc(O)c(O)c4)[C@@H]3OC(=O)c3cc(O)c(O)c(O)c3)c2O[C@@H]1c1ccc(O)c(O)c1)c1cc(O)c(O)c(O)c1` the inhibition [7] was 13%, the inhibition at 20 µg/mL [2] was 47% and the selectivity ratio [8] was > 1.5. The pEC50 ([4]; Human immunodeficiency virus 1) was 4.77 and the pIC50 ([5]; Human immunodeficiency virus 1) was < 4.60.

`CC1(C)CC[C@]2(C(=O)O)CC[C@]3(C)C(=CCC4[C@@]5(C)C[C@@H](O)[C@@H]6OC(=O)c7cc(O)c(O)c(O)c7-c7c(cc(O)c(O)c7O)C(=O)OC[C@@]6(CO)C5CC[C@]43C)C2C1` (stereo not given in full) showed an inhibition [7] of 18%, an inhibition at 20 µg/mL [2] of 23% and a selectivity ratio [8] of 1. For the same compound, the pEC50 ([4]; Human immunodeficiency virus 1) was 4.40 and the pIC50 ([5]; Human immunodeficiency virus 1) was 4.40.

In the case of `O=C(O[C@H]1[C@H](O)C[C@](OC(=O)c2cc(O)c(O)c(O)c2)(C(=O)O)C[C@H]1O)c1cc(O)c(O)c(O)c1`, the inhibition [7] was 0%, the inhibition at 20 µg/mL [2] was 65% and the selectivity ratio [8] was 1.8. For the same compound, the pEC50 ([4]; Human immunodeficiency virus 1) was 4.60 and the pIC50 ([5]; Human immunodeficiency virus 1) was 4.35.
